Laboratory results: US9518041B2, “(+)-5-(3,4-difluorophenyl)-5-[(3-methyl-2-oxopyridin-1(2H)-yl)methyl]imidazolidine-2,4-dione and drug containing same” (KAKEN PHARMACEUTICAL CO., LTD., priority 2013, dated 2016)

Assays:
human MMP-9 = target: T1, human MMP-9 (Homo sapiens, UniProt P14780); test: MMP-9 inhibition test; format: biochemical; conditions: read-out: Inhibitory activity (IC50, nM) MMP-9
T1 construct: purchased Calbiochem 444231
Description: MMP inhibition tests can be carried out, for example, using a fluorescent synthetic substrate based on the methods described in Bickett et al. (D. Mark Bickett et al., Anal. Biochem., 1993, 212, 58-64) and Nagase et al. (H. Nagase et al., J. Biol. Chem., 1994, 269, 20952-20957). The method for each MMP inhibition test is shown below.
90 μL (11 ng) of human MMP-9 (Calbiochem #444231) was mixed with 10 μL of 10 mM APMA, and activated by reacting at 37° C. for 2 hours. 10 μL of the resultant enzyme solution was diluted to 90 μL with an assay buffer A. The mixture was added to 90 μL of a 20 μM fluorescent substrate (Dnp-Pro-Cha-Gly-Cys(Me)-His-Ala-Lys(Nma)-NH2) (SEQ ID NO: 2) prepared with an assay buffer B, and reacted at 37° C. for 4 hours. Enzyme activity was then determined by measuring with a fluorescence intensity meter (Labsystems, Fluoroskan Ascent) at an excitation wavelength of 355 nm and a measurement wavelength of 460 nm.
From the enzyme activity in the presence or the absence of the test substance, the inhibition rate was determined, and the 50% inhibitiory concentration (IC50) of the test substance was calculated.

[1] = Pharmacokinetic study after intravenous and percutaneous administration in hairless mice; format: in vivo; conditions: 1 w/v % Macrogol 400 solution, 50 μL/animal, occlusive
Description: Test substances (0.1 to 0.5 mg/5 mL/kg) were administered by bolus injection into the tail vein of hairless mice under anesthesia.
A 4 cm^2 administration site (2 cm×2 cm) was marked on the back skin of hairless mice under anesthesia (fed) using an oil-based marker. Test substances were applied to the administration site at 50 μL/animal (1 w/v % Macrogol 400 solution). Gauze (BEMCOT®) about 2 cm×2 cm in size was fixed using double-sided tape to an approximately 4 cm×4 cm polyethylene sheet, and the gauze face was placed over the face on which the test substance had been applied. An adhesive elastic bandage (Elastopore, about 10 cm) was stuck over the gauze to fix and protect the face on which the test substance had been applied. The mice were then returned to its cage. Twenty-four hours after administration, occlusive application was confirmed to have been properly carried out. […]
The cryopreserved plasma obtained by the above method was thawed at room temperature. After removing the protein using methanol, the concentration of the test substance in the plasma was measured. […]
Transdermal absorption rate was calculated using the following equation by calculating the AUC (area under the curve of the concentration in plasma) from the plasma concentration of the test substance measured by the method described above. […]

T1 sequence (P14780 107-707 limits assumed): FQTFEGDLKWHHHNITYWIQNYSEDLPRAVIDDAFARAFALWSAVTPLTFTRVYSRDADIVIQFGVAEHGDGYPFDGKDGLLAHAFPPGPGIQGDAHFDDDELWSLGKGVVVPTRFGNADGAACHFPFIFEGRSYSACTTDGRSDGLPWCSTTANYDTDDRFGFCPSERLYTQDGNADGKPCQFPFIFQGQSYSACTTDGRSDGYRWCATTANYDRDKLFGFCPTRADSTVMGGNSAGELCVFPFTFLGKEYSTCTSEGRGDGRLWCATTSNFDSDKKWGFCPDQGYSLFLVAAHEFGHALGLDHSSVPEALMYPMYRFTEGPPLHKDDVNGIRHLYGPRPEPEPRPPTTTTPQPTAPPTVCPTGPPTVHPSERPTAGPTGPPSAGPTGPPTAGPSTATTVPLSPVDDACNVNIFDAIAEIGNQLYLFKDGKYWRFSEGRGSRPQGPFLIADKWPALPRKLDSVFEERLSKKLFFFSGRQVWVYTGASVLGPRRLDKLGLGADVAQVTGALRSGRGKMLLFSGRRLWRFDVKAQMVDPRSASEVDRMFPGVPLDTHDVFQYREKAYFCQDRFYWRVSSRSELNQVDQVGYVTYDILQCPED

In the case of `Cc1cccn(CC2(c3ccc(F)c(F)c3)NC(=O)NC2=O)c1=O` (single isomer, unassigned; (+)) [(+)-5-(3,4-difluorophenyl)-5-[(3-methyl-2-oxopyridin-1(2H)-yl)methyl]imidazolidine-2,4-dione], the IC50 (human MMP-9) is reported as greater than 10000 nM and the “Transdermal absorbability after percutaneous administration” value [1] is reported as “good transdermal absorbability”.
